Experimental findings from BindingDB's records for PubMed 35777269 (University of Maryland, 2022) are described below.

The structures appear in SMILES notation.

The test concerns the target Protein Wnt-3a (Human, UniProt P56704). In words: Inhibition of recombinant human Wnt3a in HEK293 cells assessed as Wnt signalling by measuring reduction in relative luminescence units incubated for 24 hrs by luciferase reporter assay.

Sequence of Protein Wnt-3a (P56704 whole entry): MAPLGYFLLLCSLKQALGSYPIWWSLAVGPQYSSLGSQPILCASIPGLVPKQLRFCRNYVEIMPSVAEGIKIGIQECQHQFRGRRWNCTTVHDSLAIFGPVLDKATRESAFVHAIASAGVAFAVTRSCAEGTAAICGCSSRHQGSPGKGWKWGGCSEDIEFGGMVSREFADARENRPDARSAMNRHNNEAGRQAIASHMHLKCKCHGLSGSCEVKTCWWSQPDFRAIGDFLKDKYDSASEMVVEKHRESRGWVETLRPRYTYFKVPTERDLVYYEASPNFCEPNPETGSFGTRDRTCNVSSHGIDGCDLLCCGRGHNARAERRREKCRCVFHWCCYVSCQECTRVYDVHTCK

Regarding `Cc1ccccc1-n1nnc(C(=O)Nc2ccc3ccccc3n2)c1C`, the IC50 – broadly, the midpoint of a concentration-inhibition curve – turned out to be 4.1 nM.
